# “Also recorded” adds a separate entry of the source.
# Columns and labels:
# [1] = system: TAA treated mice; experiment: Liver function analysis of blood plasma in TAA treated mice; assay type: in vivo
# [2] = system: TAA treated mice; details: mouse, in vivo
# [3] = system: TAA treated CB2-KO mice; experiment: Blood ALT and AST levels in TAA treated CB2-KO mice; assay type: in vivo
# Method: (ii) Mice. Eight- to 10-week old female Sabra mice (29-32 g), obtained from the animal facility of the Hebrew University, Israel, were assigned at random to different groups of 10 mice per cage and were used in all experiments. All cages contained wood-chip bedding and were placed in a temperature-controlled room at 22° C., on a 12 h light/dark cycle (lights on at 07.00 a.m.). The mice had free access to water 24 h a day. The food provided was Purina chow, the animals were maintained in the animal facility (SPF unit) of the Hebrew University Hadassah Medical School, Jerusalem. CB-2 KO mice were provided by Prof. Zimmer, Institute of Molecular Psychiatry, University of Bonn, Germany.
# (xi) Liver function analysis. Ammonia, bilirubin, ALT, AST, GGT and glucose were analyzed using standard analytical methods in the Hadassah Hospital Biochemistry Department, Jerusalem, Israel.
# [4] = system: BDL mice; experiment: Cognitive function in chronic liver failure induced by bile duct ligation (BDL); assay type: in vivo; details: BDL mice relative to sham; cannabidiol 5 mg/kg i.p. daily, evaluated 2 weeks post-surgery
# [5] = system: BDL mice; experiment: Motor function in chronic liver failure induced by bile duct ligation (BDL); assay type: in vivo; details: BDL mice relative to sham; cannabidiol 5 mg/kg i.p. daily, evaluated 2 weeks post-surgery
# [6] = system: AMPK; experiment: Hippocampal AMPK phosphorylation (immunoblot) in TAA-induced liver failure mice; assay type: in vivo
# [7] = system: dopamine; experiment: Brain catecholamine (dopamine) measurement by HPLC-ECD in TAA treated mice; assay type: in vivo
# Method: (vi) Catecholamine measurements. Catecholamines were measured as described previously (Avraham et al, 1996). The assay for dopamine was performed by High Pressure Liquid Chromatography (HPLC) separation and detection using HPLC-electrochemical detection (ECD). Values are presented as concentration (ng/g tissue).
# [8] = system: glial cells; set-up: species or system mice; details: mouse, in vivo
# [9] = system: AMPK; experiment: Hippocampal AMPK phosphorylation (immunoblot) in control mice; assay type: in vivo; details: for hippocampal AMPK phosphorylation (activated AMPK): control mice
# [10] = system: TAA treated mice; experiment: Eight-arm maze (cognitive function) in TAA treated mice; assay type: in vivo
# [11] = system: TAA treated mice; experiment: Activity test in TAA treated mice; assay type: in vivo
# [12] = system: TAA treated mice; experiment: Neurological score in TAA treated mice; assay type: in vivo
# [13] = system: CB1 and the CB2 receptors; details: previously known; cited from earlier work
# [14] = system: IL-1β mRNA; experiment: Hippocampal IL-1β mRNA level by RT-PCR in BDL mice; assay type: in vivo; details: cannabidiol 5 mg/kg i.p. daily for 3 weeks
# [15] = system: malondialdehyde; experiment: Oxidative stress (malondialdehyde) in liver tissue of BDL mice; assay type: in vivo; details: cannabidiol 5 mg/kg i.p. daily
compound,measurement,setting,value
"CCCCC/C=C\C/C=C\C/C=C\C/C=C\CCCC(=O)OC(CO)CO [2-AG, 2-arachidonoylglycerol]",alanine transaminase (ALT) level,"[1]; mouse, in vivo",significantly reduced
same,aspartate aminotransferase (AST) level,"[1]; mouse, in vivo",significantly reduced
same,influence of the co-administered agent on the other agent's reduction of ALT and AST levels,"[1]; mouse, in vivo",did not counteract the effect of SR141716A or SR144528
same,Inflammation (frequency of cells in the liver),[2],Decreased
same,Regeneration (frequency of cells in the liver),[2],Increased
same,ALT level,[3],modestly but significantly reduced
same,AST level,[3],effective in reducing its level
same,cognitive impairment (eight arm maze AUC),[4],effectively reversed
same,motor impairment (motor activity),[5],failed to reverse
"NC(=O)c1ncn([C@@H]2O[C@H](CO)[C@@H](O)[C@H]2O)c1N [AICAR, 5-aminoimidazole-4-carboxamide ribonucleoside]",AMPK activation,"[6]; TAA treated mice, AICAR treatment",augmented AMPK activation
same,brain dopamine concentration,[7],restored levels to normal
same,alanine transaminase (ALT) level,"[1]; TAA treated mice, blood",Neither AICAR nor THC ameliorated these markers
same,aspartate aminotransferase (AST) level,"[1]; TAA treated mice, blood",Neither AICAR nor THC ameliorated these markers
same,ammonia level,"[1]; TAA treated mice, blood plasma",no effect
same,bilirubin level,"[1]; TAA treated mice, blood plasma",Neither AICAR nor THC ameliorated these markers
same,gamma-glutamyltransferase (GGT) level,"[1]; TAA treated mice, blood plasma",Neither AICAR nor THC ameliorated these markers
CCCCCCC(C)(C)c1cc(OC)c([C@@H]2C=C(CO)[C@@H]3C[C@H]2C3(C)C)c(OC)c1 [HU-308],alanine transaminase (ALT) level,"[1]; TAA treated mice, blood",significantly reduced
same,aspartate aminotransferase (AST) level,"[1]; TAA treated mice, blood",significantly reduced
same,influence of the co-administered agent on the other agent's reduction of ALT and AST levels,"[1]; TAA treated mice, co-administration",did not counteract the effect of SR144528
same,Inflammation (frequency of cells in the liver),[2],reduced; also recorded: Decreased
same,Regeneration (frequency of cells in the liver),[2],Increased
same,"astrogliosis, direction of change (GFAP staining, hippocampus)",[8],prevented; also recorded: Decrease (p < 0.001)
Cc1c(C(=O)NN2CCCCC2)nn(-c2ccc(Cl)cc2Cl)c1-c1ccc(Cl)cc1 [SR141716A],alanine transaminase (ALT) level,"[1]; mouse, in vivo",significantly reduced
same,aspartate aminotransferase (AST) level,"[1]; mouse, in vivo",significantly reduced
same,Inflammation (frequency of cells in the liver),[2],reduced; also recorded: Decreased
same,Regeneration (frequency of cells in the liver),[2],Increased
same,AST level,[3],effective in reducing its level
same,influence of co-administration on the ALT effect of 2-AG,[3]; 2-AG + SR141716A,blocked the effect of 2-AG
same,influence of co-administration on the AST effect of 2-AG,[3]; 2-AG + SR141716A,abolished the effect of 2-AG
same,"astrogliosis, direction of change (GFAP staining, hippocampus)",[8],prevented; also recorded: Decrease (p < 0.001)
"CCCCCc1cc(O)c2c(c1)OC(C)(C)[C@@H]1CCC(C)=C[C@@H]21 [THC, (−)-(6aR,10aR)-6,6,9-trimethyl-3-pentyl-6a,7,8,10a-tetrahydro-6H-benzo[c]chromen-1-ol]",hippocampal AMPK phosphorylation (activated AMPK),[9]; higher concentrations of THC (up to 10 mg/kg),dose dependent elevation in activated enzyme
same,hippocampal AMPK phosphorylation (activated AMPK),[9]; low levels of THC (less than 0.1 mg/kg),reduced the level of activated AMPK
same,quantity of THC required to activate AMPK,[9]; healthy animals,10 mg/kg
same,hippocampal AMPK phosphorylation (activated AMPK),"[6]; TAA treated mice, 0.01 mg/kg THC",inactivating effect
same,AMPK activation in brain at end of behavioral studies,"[6]; TAA treated mice, 0.1 mg/kg THC daily for 5 days, 0.1 mg/kg",activates AMPK; also recorded: Amplification of AMPK activation
same,hippocampal AMPK phosphorylation (activated AMPK),"[6]; TAA treated mice, 0.1 mg/kg THC, 0.1 mg/kg",AMPK activation was achieved; also recorded: augmented AMPK activation
same,quantity of THC required to activate AMPK,[6]; experimental hepatic encephalopathy animals,0.1 mg/kg
same,TAA-induced impaired cognitive function (eight arm maze),[10],improved significantly
same,activity performance,[11],restored
same,neurological score,[12],improved
same,brain dopamine concentration,[7],restored levels to normal
same,alanine transaminase (ALT) level,"[1]; mouse, in vivo",Neither AICAR nor THC ameliorated these markers
same,ammonia level,"[1]; mouse, in vivo",no effect
same,aspartate aminotransferase (AST) level,"[1]; mouse, in vivo",Neither AICAR nor THC ameliorated these markers
same,bilirubin level,"[1]; mouse, in vivo",Neither AICAR nor THC ameliorated these markers
same,gamma-glutamyltransferase (GGT) level,"[1]; mouse, in vivo",Neither AICAR nor THC ameliorated these markers
same,affinity to CB1 versus CB2 receptors,[13],about equal affinity
C=C(C)[C@@H]1CCC(C)=C[C@H]1c1c(O)cc(CCCCC)cc1O [cannabidiol],cognitive impairment (eight arm maze AUC),[4],restored; also recorded: reversed
same,motor impairment (motor activity),[5],restored; also recorded: reversed
same,IL-1β mRNA level in the hippocampus (normalized to L19 mRNA),[14],restored; also recorded: reversed
same,oxidative stress in the liver (malondialdehyde),[15],restored; also recorded: reversed
COc1cc(CNC(=O)CCCC/C=C/C(C)C)ccc1O [capsaicin],TAA-induced impaired cognitive function (eight arm maze),[10],improved significantly; also recorded: significantly improves
same,activity performance,[11],restored; also recorded: significantly improves
same,neurological score,[12],improved; also recorded: significantly improves
same,alanine transaminase (ALT) level,"[1]; TAA treated mice, blood",significantly reduces
same,aspartate aminotransferase (AST) level,"[1]; TAA treated mice, blood",significantly reduces
same,Apoptosis (frequency of cells showing apoptosis/necrosis in the liver),[2],amelioration of TAA-induced apoptosis/necrosis reached statistical significance; also recorded: Decreased
same,Inflammation (frequency of cells in the liver),[2],Decreased
same,Regeneration (frequency of cells in the liver),[2],significantly less hepatic regeneration; also recorded: Decreased
same,"astrogliosis, direction of change (GFAP staining, hippocampus)",[8],prevented; also recorded: reduced astrogliosis; also recorded: minimal; also recorded: Decrease (p < 0.001)
Oc1cc2c(cc1O)CN(C(=S)NCCc1ccc(Cl)cc1)CCC2 [capsazepine],influence of the co-administered agent on the other agent's reduction of ALT and AST levels,"[1]; mouse, in vivo",abolishment of the effect of capsaicin
SR144528,alanine transaminase (ALT) level,"[1]; TAA treated mice, blood",significantly reduced
same,aspartate aminotransferase (AST) level,"[1]; TAA treated mice, blood",significantly reduced
same,Inflammation (frequency of cells in the liver),[2],non-significant changes
same,Regeneration (frequency of cells in the liver),[2],Increased

# Source: US10166202B2, “Treatment of hepatic encephalopathy and liver cirrhosis” (Yissum Research Development Company of the Hebrew …, priority 2006, dated 2019)
